From PMC6539525, “Design, Synthesis, and Mechanism of Dihydroartemisinin–Coumarin Hybrids as Potential Anti-Neuroinflammatory Agents” (Molecules, 2019)
pIC50: −log10 of the molar value. Where two headings read alike, the source gives them in different places.

Experiments:
[1] = test system: NO release of LPS-induced microglial N9 cells; test: Inhibition of NO release in LPS-induced N9 cells (Griess); type: cell-based, murine; settings: Mus musculus, 1 μg/mL LPS for 48 h, NO level in medium
Experimental: (§1) The anti-neuroinflammatory activity of DCH was evaluated and then the representative compounds were selected for the further study. […] In addition, in order to exclude the death influence, MTT-IC20 of all the compounds were measured. […] The exact reason was still unclear, but we supposed that it might be related to the homeostasis of cells. The tumor cells actually were always in hypoxia condition, in which DCH could promote the cytotoxic activity against tumor cells. In brief, DCH could reduce the release of NO caused by LPS-induced microglial cells.
(§2) N9 cells, which were in the logarithmic phase, were incubated for 24 h by adherent culture. Subsequently, the medium was changed to new one without serum. The cells were treated with different concentration of tested compounds. After specific time in the LPS condition, the supernatants were collected and analyzed.
The nitrite levels in medium were determined by Griess reaction. The absorbance was measured at 540 nm using a microplate reader.

[2] = MTT cytotoxicity in N9 cells; type: cell-based, murine; settings: mouse, N9 microglial cells, cytotoxic activity
Experimental: as §1
(§3) When the adherent cells reached 80% confluence, the culture medium was discarded. The cells were digested by trypsin and collected after centrifugation. The fresh culture medium was gently blown into it to form single-cell suspension. Cell suspension will be diluted to 1.5–3 × 10^4 cells/mL. Each hole of 96-well plates was added 100 μL cell suspension and incubated for 24 h (5% CO2; 37 °C). Then the holes were added different concentrations of tested compounds. The early screening concentration is set to 100 μM, 50 μM, 25 μM, 12.5 μM, and 6.25 μM. Three replicates were made for each concentration of the tested compounds. After the cells were grown for 96h, 20 μL MTT (5 mg/mL) was added to each well and incubated for 4 h. The medium was discarded and each well was added 100 μL DMSO to dissolve the formazan blue. Absorbance was measured at 570 nm with a microplate reader (Synergy-HT, BioTek Instruments, Winooski, VT, USA).
as §2

HCT-116 cells = test: MTT cytotoxicity in HCT-116 cells; type: cell-based; settings: Homo sapiens
Experimental: (§4) As the anti-neuroinflammatory agents for cancer patients, all newly synthesized compounds were evaluated in vitro for antitumor activity against human breast cancer cell line MDA-MB-231, colorectal cancer cells HT-29 and HCT-116, and lung cancer cell line A549 by using the standard MTT method, respectively. Doxorubicin (DOX) and DHA were used as the reference standard. Additionally, owing to the rapid proliferation, the tumor cells actually was always in hypoxia condition. Therefore, the in vitro cytotoxicity was evaluated in two different conditions (hypoxia and normoxia).
(§5) After recovery, the cells were cultured in 96-well plates for 24 h at 37 °C in a humidified atmosphere with 95% air and 5% CO2. After treated with different tested compounds, the hypoxia groups were placed in a sealed hypoxia incubator chamber (Stemcell Technologies, Inc., Vancouver, BC, Canada) filled with 5% CO2 and 95% N2 for 24 h, and then transferred to the incubator chamber filled with air for 72 h. On the contrary, the normoxia groups were cultured under air condition for 96h.
(§6) Cancer cells HT-29 (Human Colorectal Adenocarcinoma cell line), MDA-MB-231 (Human Breast Cancer cell line), HCT-116 (Human Colorectal Carcinoma cell line), and A549 (Human Lung Adenocarcinomic cell line) were from ATCC.
as §3
(§7) Hypoxia condition: The cells were treated with different concentration of tested compounds, placed in hypoxia chamber (Catalog Number 27310, Stemcell Technologies, Inc., Vancouver, BC, Canada), and incubated for 24 h ([…]; 37 °C). Then the cells were placed in normoxia condition (5% CO2; 37 °C) and incubated for 72 h.

MDA-MB-231 cells = test: MTT cytotoxicity in MDA-MB-231 cells; type: cell-based; settings: Homo sapiens
Experimental: as §4, §5, §6, §3, §7

HT-29 cells = test: MTT cytotoxicity in HT-29 cells; type: cell-based, Human; settings: Homo sapiens, MTT
Experimental: as §4
as §5, with “On the contrary, the normoxia groups were cultured under air condition for 96h.” left out
as §6
as §3, with “After the cells were grown for 96h, 20 μL MTT (5 mg/mL) was added to each well and incubated for 4 h.” left out, “USA). […]” for “USA).”

A549 cells = test: MTT cytotoxicity in A549 cells; type: cell-based; settings: Homo sapiens
Experimental: as §4, §5, §6, §3, §7

[3] = HCT-116, hypoxia 24 h then normoxia 72 h, read-out: IC50 HCT-116 Hypoxia
[4] = HCT-116, normoxia 96 h, read-out: IC50 HCT-116 Normoxia
[5] = MDA-MB-231, hypoxia 24 h then normoxia 72 h, read-out: IC50 MDA-MB-231 Hypoxia
[6] = MDA-MB-231, normoxia 96 h, read-out: IC50 MDA-MB-231 Normoxia
[7] = HT-29, hypoxia 24 h then normoxia 72 h, read-out: IC50 HT-29 Hypoxia
[8] = HT-29, normoxia 96 h, read-out: IC50 HT-29 Normoxia
[9] = A549, hypoxia 24 h then normoxia 72 h, read-out: IC50 A549 Hypoxia
[10] = A549, normoxia 96 h, read-out: IC50 A549 Normoxia

Row | pIC50 [1] | melting point [°C] | SMILES | IC20 [2] [µM] | pIC50 (HCT-116 cells; [3]) | pIC50 (HCT-116 cells; [4]) | pIC50 (MDA-MB-231 cells; [5]) | pIC50 (MDA-MB-231 cells; [6]) | pIC50 (HT-29 cells; [7]) | pIC50 (HT-29 cells; [8]) | pIC50 (A549 cells; [9]) | pIC50 (A549 cells; [10])
1 | 5.84 | 73 to 75 | C[C@H]1[C@@H](OCc2cn(Cc3cc4ccccc4oc3=O)nn2)O[C@@H]2O[C@@]3(C)CC[C@H]4[C@H](C)CC[C@@H]1[C@@]24OO3 [1a, 3-((4-((10S)-dihydroartemisininoxy)methyl-1H-1,2,3-triazol-1-yl)-methyl)-2H-1-chromen-2-one] | > 10 | 4.30 | 4.31 | 4.52 | 4.19 | 4.84 | 4.74 | 4.27 | 4.08
2 | < 5.00 | 78 to 80 | C[C@H]1[C@@H](OCc2cn(Cc3cc4cc(Br)ccc4oc3=O)nn2)O[C@@H]2O[C@@]3(C)CC[C@H]4[C@H](C)CC[C@@H]1[C@@]24OO3 [1b, 6-bromo-3-((4-((10S)-dihydroartemisininoxy)methyl-1H-1,2,3-triazol-1-yl)-methyl)-2H-1-chromen-2-one] | > 10 | < 4.00 | < 4.00 | < 4.00 | < 4.00 | 4.88 | 4.67 | < 4.00 | < 4.00
3 | 5.27 | 93 to 95 | C[C@H]1[C@@H](OCc2cn(Cc3cc4cc(Cl)ccc4oc3=O)nn2)O[C@@H]2O[C@@]3(C)CC[C@H]4[C@H](C)CC[C@@H]1[C@@]24OO3 [1c, 6-chloro-3-((4-((10S)-dihydroartemisininoxy)methyl-1H-1,2,3-triazol-1-yl)-methyl)-2H-1-chromen-2-one] | > 10 | 4.39 | 4.22 | 4.49 | < 4.00 | 4.58 | 4.45 | 4.31 | 4.13
4 | 5.80 | 113 to 115 | C[C@H]1[C@@H](OCc2cn(Cc3cc4cc(Cl)cc(Cl)c4oc3=O)nn2)O[C@@H]2O[C@@]3(C)CC[C@H]4[C@H](C)CC[C@@H]1[C@@]24OO3 [1d, 6,8-dichloro-3-((4-((10S)-dihydroartemisininoxy)methyl-1H-1,2,3-triazol-1-yl)-methyl)-2H-1-chromen-2-one] | > 10 | 4.31 | 4.22 | 4.47 | 4.16 | 4.87 | 4.83 | 4.34 | 4.27
5 | 6.32 | 103 to 105 | C[C@H]1[C@@H](OCc2cn(Cc3cc4cc(Br)cc(Br)c4oc3=O)nn2)O[C@@H]2O[C@@]3(C)CC[C@H]4[C@H](C)CC[C@@H]1[C@@]24OO3 [1e, 6,8-dibromo-3-((4-((10S)-dihydroartemisininoxy)methyl-1H-1,2,3-triazol-1-yl)-methyl)-2H-1-chromen-2-one] | > 10 | < 4.00 | 4.26 | 4.34 | 4.11 | 4.57 | 4.81 | 4.22 | < 4.00
6 | 6.01 | 143 to 145 | C[C@H]1[C@@H](OCCc2cn(Cc3cc4ccccc4oc3=O)nn2)O[C@@H]2O[C@@]3(C)CC[C@H]4[C@H](C)CC[C@@H]1[C@@]24OO3 [2a, 3-((4-(2-((10S)-dihydroartemisininoxy)ethyl)-1H-1,2,3-triazol-1-yl)-methyl)-2H-1-chromen-2-one] | > 10 | < 4.00 | < 4.00 | < 4.00 | < 4.00 | 4.71 | < 4.00 | < 4.00 | < 4.00
7 | 5.87 | 101 to 103 | C[C@H]1[C@@H](OCCc2cn(Cc3cc4cc(Cl)cc(Cl)c4oc3=O)nn2)O[C@@H]2O[C@@]3(C)CC[C@H]4[C@H](C)CC[C@@H]1[C@@]24OO3 [2d, 6,8-dichloro-3-((4-(2-((10S)-dihydroartemisininoxy)ethyl)-1H-1,2,3-triazol-1-yl)-methyl)-2H-1-chromen-2-one] | > 10 | 4.33 | 4.27 | 4.32 | 4.05 | 4.51 | 4.71 | 4.16 | 4.02
8 | 6.03 | 93 to 95 | C[C@H]1[C@@H](OCCc2cn(Cc3cc4cc(Br)cc(Br)c4oc3=O)nn2)O[C@@H]2O[C@@]3(C)CC[C@H]4[C@H](C)CC[C@@H]1[C@@]24OO3 [2e, 6,8-dibromo-3-((4-(2-((10S)-dihydroartemisininoxy)ethyl)-1H-1,2,3-triazol-1-yl)-methyl)-2H-1-chromen-2-one] | > 10 | 4.06 | 4.03 | 4.36 | < 4.00 | 4.86 | 4.41 | 4.10 | < 4.00
9 | 5.47 | 111 to 113 | Cc1cc(C)c2c(OCc3cn(CCO[C@H]4O[C@@H]5O[C@@]6(C)CC[C@H]7[C@H](C)CC[C@@H]([C@H]4C)[C@@]57OO6)nn3)cc(=O)oc2c1 [5l] | 7.13 | < 4.00 | < 4.00 | < 4.00 | < 4.00 | 5.42 | 5.56 | < 4.00 | < 4.00
10 | 5.97 | 111 to 113 | Cc1cc(C)c2oc(=O)cc(OCc3cn(CCO[C@H]4O[C@@H]5O[C@@]6(C)CC[C@H]7[C@H](C)CC[C@@H]([C@H]4C)[C@@]57OO6)nn3)c2c1 [5m] | 1.04 | 4.35 | 4.20 | 4.88 | 4.85 | 5.23 | 4.89 | 5.89 | 5.57
11 | 6.24 | 84 to 86 | Cc1cccc2c(OCc3cn(CCO[C@H]4O[C@@H]5O[C@@]6(C)CC[C@H]7[C@H](C)CC[C@@H]([C@H]4C)[C@@]57OO6)nn3)cc(=O)oc12 [5o] | > 10 | 4.41 | 4.53 | 4.78 | 4.43 | 4.67 | 4.79 | 4.35 | 4.30
